Experimental data: ChEMBL document CHEMBL1131006, “Antimycobacterial activity of substituted isosteres of pyridine- and pyrazinecarboxylic acids” (1998)
In brackets after ≈: the same amount, converted by molar mass.

tested on: Mycobacterium tuberculosis; experiment: Compound was tested for inhibitory activity against Mycobacterium tuberculosis H37Rv ATCC 27294 and the activity is expressed as minimum inhibitory concentration (MIC).; format: functional

Structure (SMILES) | MIC [µg/mL]
CC(C)(C)C(=O)OCn1nnnc1-c1cnccn1 | 13 (≈ 49.6 µM)
c1cnc(C2N=NN=N2)cn1 | > 210
CC(C)(C)C(=O)OCn1nnc(-c2cccnc2)n1 | 13 (≈ 49.8 µM)
CC(=O)Oc1cc(=O)oc2cnccc12 | > 210
C[S+]([O-])CC(=O)c1cccnc1 (stereo unspecified) | > 210
CC(C)(C)C(=O)OCn1nnnc1-c1ccncc1 | 52 (≈ 199 µM)
O=c1cc(O)c2ccncc2o1 | > 210
c1cc(C2N=NN=N2)ccn1 | > 210
C[S+]([O-])CC(=O)c1ccncc1 (stereo unspecified) | > 210
CSCC(=O)c1cccnc1 | 210 (≈ 1260 µM)
C[S+]([O-])CC(=O)c1cnccn1 (stereo unspecified) | > 210
CC(C)(C)C(=O)OCn1nnnc1-c1cccnc1 | 105 (≈ 402 µM)
c1cncc(C2N=NN=N2)c1 | > 210
CSCC(=O)c1cnccn1 | 105 (≈ 624 µM)
CSCC(=O)c1ccncc1 | 210 (≈ 1260 µM)
CC(C)(C)C(=O)OCn1nnc(-c2cnccn2)n1 | 26 (≈ 99.1 µM)
CCOC(=O)Oc1cc(=O)oc2cnccc12 | > 210
O=C(Oc1cc(=O)oc2cnccc12)c1ccccc1 | 210 (≈ 786 µM)
CC(C)(C)C(=O)OCn1nnc(-c2ccncc2)n1 | 26 (≈ 99.5 µM)
NNC(=O)c1ccncc1 [ISONIAZID] | < 0.02
NC(=O)c1cnccn1 [PYRAZINAMIDE] | 52 (≈ 422 µM)
